Results taken from ChEMBL document CHEMBL1201862, “PubChem BioAssay data set” (2004).
Active and inactive are the calls of the source.

Experiments:
Cytochrome P450 2D6 = Cytochrome P450 2D6 (Homo sapiens, UniProt P10635);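 also: CYP2D6 member of a cytochrome P450 panel assay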
CAAX prenyl protease 2 [1] = target: CAAX prenyl protease 2 (Homo sapiens, UniProt Q9Y256); test: human Rce1 protease inhibitors, dose response, biochemical, yeast membranes, quenched-peptide fluorescence, cherry-pick (AID 588849)
Sequence of CAAX prenyl protease 2 (Homo sapiens, UniProt Q9Y256) (Q9Y256 whole entry): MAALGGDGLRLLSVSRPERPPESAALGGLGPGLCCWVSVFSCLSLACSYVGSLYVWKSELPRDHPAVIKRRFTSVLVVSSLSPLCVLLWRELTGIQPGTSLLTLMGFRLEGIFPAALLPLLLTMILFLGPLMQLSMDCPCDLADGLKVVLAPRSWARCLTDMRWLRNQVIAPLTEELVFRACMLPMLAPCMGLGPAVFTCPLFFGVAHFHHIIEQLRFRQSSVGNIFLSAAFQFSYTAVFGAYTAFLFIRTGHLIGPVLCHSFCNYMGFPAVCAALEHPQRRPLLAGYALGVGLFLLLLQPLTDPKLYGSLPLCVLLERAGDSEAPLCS

CAAX prenyl protease 2 [2] = target: T1, CAAX prenyl protease 2 (Saccharomyces cerevisiae S288c, UniProt Q03530); type: biochemical
T1 sequence (Q03530 whole entry): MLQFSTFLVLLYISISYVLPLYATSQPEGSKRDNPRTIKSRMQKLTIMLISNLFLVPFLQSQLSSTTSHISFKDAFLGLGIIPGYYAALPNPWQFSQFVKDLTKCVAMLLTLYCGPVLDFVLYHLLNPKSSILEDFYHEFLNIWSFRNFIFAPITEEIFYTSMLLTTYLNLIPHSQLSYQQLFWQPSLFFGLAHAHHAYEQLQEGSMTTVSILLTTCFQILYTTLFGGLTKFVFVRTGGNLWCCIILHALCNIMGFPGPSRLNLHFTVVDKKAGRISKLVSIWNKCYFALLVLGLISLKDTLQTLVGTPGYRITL

Trypsin = Trypsin (Sus scrofa, UniProt P00761); test: porcine trypsin inhibitors, dose response, selectivity assay for Rce1 protease inhibitor project, biochemical, quenched peptide fluorescence, cherry-pick (AID 488789)
Sequence of Trypsin (P00761 whole entry): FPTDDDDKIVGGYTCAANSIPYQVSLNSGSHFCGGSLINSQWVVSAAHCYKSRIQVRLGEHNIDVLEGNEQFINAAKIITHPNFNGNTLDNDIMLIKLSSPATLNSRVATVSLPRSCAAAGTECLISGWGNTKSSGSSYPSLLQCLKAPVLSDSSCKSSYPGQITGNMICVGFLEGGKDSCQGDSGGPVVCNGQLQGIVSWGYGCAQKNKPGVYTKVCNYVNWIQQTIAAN

[3] = target: T2, Kappa-type opioid receptor (Homo sapiens, UniProt P41145); type: functional
T2 sequence (P41145 whole entry): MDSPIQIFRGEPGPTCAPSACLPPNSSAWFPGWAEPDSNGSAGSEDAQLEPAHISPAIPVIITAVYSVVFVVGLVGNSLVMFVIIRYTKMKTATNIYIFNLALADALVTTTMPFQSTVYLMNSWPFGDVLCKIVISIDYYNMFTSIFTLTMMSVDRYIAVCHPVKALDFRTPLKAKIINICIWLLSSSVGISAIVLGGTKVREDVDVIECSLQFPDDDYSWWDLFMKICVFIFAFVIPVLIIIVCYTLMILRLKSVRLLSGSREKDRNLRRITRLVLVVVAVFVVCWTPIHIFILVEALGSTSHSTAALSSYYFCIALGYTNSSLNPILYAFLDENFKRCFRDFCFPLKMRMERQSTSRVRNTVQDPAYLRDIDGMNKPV

[4] = target: T3, Type-1 angiotensin II receptor (Homo sapiens, UniProt P30556); test: AT1 receptor antagonists, dose response, selectivity assay for APJ receptor antagonist project, cell-based, uHTS hits (AID 463214); type: functional;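 also: antagonist potency against angiotensin II stimulated AT1 response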
T3 sequence (P30556 whole entry): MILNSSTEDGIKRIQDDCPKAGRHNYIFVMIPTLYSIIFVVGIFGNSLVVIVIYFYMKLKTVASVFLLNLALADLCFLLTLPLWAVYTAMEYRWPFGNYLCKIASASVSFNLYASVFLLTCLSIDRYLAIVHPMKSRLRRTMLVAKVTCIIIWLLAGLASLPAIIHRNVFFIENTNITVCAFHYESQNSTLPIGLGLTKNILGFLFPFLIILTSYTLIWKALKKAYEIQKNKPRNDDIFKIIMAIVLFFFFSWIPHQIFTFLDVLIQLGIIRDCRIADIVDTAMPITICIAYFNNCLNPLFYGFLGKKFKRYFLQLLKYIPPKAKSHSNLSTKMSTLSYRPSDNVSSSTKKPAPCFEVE

Beta-galactosidase [5] = target: T4, Beta-galactosidase (Escherichia coli, UniProt Q8VNN2); type: functional
T4 sequence (Q8VNN2 whole entry): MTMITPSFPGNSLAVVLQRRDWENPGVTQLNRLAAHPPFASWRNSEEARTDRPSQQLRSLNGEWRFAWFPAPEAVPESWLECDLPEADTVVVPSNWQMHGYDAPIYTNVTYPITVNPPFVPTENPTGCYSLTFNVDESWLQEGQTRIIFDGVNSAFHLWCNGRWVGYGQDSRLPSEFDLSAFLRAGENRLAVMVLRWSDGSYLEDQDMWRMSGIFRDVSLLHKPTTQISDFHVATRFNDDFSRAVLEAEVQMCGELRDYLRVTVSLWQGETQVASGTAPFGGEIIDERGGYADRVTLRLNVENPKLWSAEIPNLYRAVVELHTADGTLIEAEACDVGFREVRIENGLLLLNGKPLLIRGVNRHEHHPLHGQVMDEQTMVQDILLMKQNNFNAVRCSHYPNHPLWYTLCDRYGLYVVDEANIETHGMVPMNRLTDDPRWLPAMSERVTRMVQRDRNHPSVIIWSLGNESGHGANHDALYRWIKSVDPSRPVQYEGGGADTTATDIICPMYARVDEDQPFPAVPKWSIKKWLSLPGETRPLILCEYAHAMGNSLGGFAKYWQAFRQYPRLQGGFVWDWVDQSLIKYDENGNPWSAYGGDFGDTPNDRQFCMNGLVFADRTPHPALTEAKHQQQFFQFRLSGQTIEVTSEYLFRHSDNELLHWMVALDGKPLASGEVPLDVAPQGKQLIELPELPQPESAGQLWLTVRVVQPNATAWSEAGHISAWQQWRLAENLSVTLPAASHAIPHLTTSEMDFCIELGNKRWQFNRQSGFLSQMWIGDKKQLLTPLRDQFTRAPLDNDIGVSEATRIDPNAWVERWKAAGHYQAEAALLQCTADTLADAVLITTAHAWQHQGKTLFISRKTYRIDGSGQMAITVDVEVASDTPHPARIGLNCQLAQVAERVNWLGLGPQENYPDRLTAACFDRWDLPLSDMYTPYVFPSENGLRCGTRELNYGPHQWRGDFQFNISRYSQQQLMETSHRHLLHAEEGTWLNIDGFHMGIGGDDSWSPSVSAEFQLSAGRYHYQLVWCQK

[6] = cytotoxicity toward NIH3T3 fibroblasts, dose response, counter-screen, cell-based, ATP luminescence, mouse fibroblasts (AID 2010); type: functional;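 also: cells exposed to compound for about 90 hours before reading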
[7] = target: T5, Delta-type opioid receptor (Homo sapiens, UniProt P41143); test: HTS Image-Based Screen for Antagonists of the DOR Receptor. [Related pubchem assays (depositor defined):AID1777, AID1785, AID1786, AID2133]; type: functional
T5 sequence (P41143 whole entry): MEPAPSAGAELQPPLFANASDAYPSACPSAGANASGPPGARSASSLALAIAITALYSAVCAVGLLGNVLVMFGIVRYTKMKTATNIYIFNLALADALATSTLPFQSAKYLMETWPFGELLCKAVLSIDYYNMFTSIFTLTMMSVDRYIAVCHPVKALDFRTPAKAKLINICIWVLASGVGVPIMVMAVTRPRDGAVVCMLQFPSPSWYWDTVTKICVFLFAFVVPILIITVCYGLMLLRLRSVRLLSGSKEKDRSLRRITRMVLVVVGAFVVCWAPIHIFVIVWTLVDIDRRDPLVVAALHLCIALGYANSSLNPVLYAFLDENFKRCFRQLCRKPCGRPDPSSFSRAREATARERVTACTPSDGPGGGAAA

Beta-galactosidase [8] = target: T4, Beta-galactosidase; test: PubChem AID 485352; type: functional
[9] = target: T2, Kappa-type opioid receptor; type: functional; remark: listed apart in the source
[10] = target: T5, Delta-type opioid receptor; test: HTS Image-Based Screen for Agonists of the DOR Receptor. [Related pubchem assays (depositor defined):AID1777, AID1786, AID2133]; type: functional
Mu-type opioid receptor = Mu-type opioid receptor (Homo sapiens, UniProt P35372); test: HTS Image-Based Screen for Agonists of the MOR Receptor. [Related pubchem assays (depositor defined):AID1777, AID1785, AID1786, AID2133]; type: functional;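 also: imaging of beta-arrestin GFP recruitment into spots after receptor activation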
Sequence of Mu-type opioid receptor (P35372 whole entry): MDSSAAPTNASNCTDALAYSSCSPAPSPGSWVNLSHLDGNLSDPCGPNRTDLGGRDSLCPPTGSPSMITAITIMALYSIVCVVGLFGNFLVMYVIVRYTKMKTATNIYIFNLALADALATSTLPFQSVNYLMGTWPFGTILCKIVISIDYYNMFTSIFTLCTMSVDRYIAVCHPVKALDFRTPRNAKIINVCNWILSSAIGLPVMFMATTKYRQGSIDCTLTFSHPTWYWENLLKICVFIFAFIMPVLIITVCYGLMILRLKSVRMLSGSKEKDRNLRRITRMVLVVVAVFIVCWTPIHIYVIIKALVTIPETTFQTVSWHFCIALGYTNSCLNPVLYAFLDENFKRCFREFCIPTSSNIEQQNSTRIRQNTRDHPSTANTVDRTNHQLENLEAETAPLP

[11] = inhibitors of intracellular T. cruzi replication, confirmation, NIH3T3 host cells, beta-gal luminescence (AID 2044); type: functional, cell-based;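 also: intracellular parasites grown in NIH/3T3 mouse fibroblasts as host cells; luminescent beta-galactosidase reporter signal from transgenic T. cruzi replicating inside host cells; inhibitors lower the luminescence signal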
[12] = target: T6, Short transient receptor potential channel 4 (Mus musculus, UniProt Q9QUQ5); test: mouse TRPC4 channel inhibitors, dose response, cell-based, HEK293 TRPC4/mu-opioid, Fluo-4 calcium (AID 434942); type: functional;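 also: potency of inhibitors blocking the TRPC4 calcium response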
T6 sequence (Q9QUQ5 whole entry): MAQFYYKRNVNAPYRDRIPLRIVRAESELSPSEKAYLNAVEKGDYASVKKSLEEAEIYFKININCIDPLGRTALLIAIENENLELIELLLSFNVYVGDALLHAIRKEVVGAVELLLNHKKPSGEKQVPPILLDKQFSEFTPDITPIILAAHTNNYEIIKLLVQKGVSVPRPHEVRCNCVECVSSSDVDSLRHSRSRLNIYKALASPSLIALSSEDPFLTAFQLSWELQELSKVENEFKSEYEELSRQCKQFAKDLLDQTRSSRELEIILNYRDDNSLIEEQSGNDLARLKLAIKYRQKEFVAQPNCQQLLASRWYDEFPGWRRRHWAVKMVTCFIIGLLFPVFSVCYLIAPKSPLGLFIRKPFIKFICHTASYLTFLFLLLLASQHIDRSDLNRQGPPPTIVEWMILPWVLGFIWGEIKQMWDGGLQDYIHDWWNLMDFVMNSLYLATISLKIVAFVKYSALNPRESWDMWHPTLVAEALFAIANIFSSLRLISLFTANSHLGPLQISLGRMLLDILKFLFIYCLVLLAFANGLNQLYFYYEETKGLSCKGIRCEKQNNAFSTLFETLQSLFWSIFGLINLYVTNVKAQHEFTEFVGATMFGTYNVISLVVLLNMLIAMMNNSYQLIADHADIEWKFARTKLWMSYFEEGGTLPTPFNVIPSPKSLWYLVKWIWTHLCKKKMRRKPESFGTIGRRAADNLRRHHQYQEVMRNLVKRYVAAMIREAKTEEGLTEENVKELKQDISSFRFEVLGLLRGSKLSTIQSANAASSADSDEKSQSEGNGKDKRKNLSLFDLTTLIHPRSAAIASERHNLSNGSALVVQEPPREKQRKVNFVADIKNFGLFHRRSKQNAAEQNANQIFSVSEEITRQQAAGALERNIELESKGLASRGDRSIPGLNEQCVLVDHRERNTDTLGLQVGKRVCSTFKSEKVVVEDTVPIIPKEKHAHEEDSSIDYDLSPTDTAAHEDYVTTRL

[13] = target: T6, Short transient receptor potential channel 4; test: mouse TRPC4 channel activators, dose response, cell-based, HEK293 TRPC4/mu-opioid, Fluo-4 calcium (AID 434937); type: functional
HEK293 = test: cells; conditions: Homo sapiens;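 also: cells exposed to compound for 14 hours overnight before viability readout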
[14] = target: Nucleotide-binding oligomerization domain-containing protein 1 (Homo sapiens, UniProt Q9Y239); test: NOD1 signaling inhibitors, SAR follow-up, revised (AID 2333); type: functional
Sequence of Nucleotide-binding oligomerization domain-containing protein 1 (Q9Y239 whole entry, the tested form may be a part): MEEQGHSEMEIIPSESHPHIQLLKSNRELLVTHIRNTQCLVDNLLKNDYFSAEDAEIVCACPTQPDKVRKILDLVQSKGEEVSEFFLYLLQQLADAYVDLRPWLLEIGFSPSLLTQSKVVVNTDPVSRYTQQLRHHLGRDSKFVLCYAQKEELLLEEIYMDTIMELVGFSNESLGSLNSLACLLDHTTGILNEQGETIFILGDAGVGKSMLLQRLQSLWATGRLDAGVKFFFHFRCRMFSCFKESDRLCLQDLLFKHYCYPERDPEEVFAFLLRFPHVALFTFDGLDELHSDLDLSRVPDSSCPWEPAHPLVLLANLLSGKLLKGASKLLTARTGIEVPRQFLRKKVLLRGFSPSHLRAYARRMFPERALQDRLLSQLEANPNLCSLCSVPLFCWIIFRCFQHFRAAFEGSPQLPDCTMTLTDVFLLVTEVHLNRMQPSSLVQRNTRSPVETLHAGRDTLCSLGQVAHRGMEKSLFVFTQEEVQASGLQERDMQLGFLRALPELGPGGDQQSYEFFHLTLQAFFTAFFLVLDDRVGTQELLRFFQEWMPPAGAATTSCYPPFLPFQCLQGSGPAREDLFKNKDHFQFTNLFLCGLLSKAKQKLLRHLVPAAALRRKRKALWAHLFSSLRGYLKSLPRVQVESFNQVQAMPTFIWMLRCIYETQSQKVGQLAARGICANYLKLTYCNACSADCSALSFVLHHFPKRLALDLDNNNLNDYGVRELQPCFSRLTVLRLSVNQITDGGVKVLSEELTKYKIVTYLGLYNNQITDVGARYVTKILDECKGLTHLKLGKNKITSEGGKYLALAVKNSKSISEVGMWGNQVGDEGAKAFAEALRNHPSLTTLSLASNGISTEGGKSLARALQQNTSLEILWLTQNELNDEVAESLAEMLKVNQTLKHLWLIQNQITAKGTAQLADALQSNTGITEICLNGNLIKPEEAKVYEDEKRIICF

Tumor necrosis factor = Tumor necrosis factor (Homo sapiens, UniProt P01375); test: TNFa-triggered NF-kB activation inhibitors, SAR follow-up, cell-based, revised (AID 2337); type: functional
Sequence of Tumor necrosis factor (P01375 whole entry): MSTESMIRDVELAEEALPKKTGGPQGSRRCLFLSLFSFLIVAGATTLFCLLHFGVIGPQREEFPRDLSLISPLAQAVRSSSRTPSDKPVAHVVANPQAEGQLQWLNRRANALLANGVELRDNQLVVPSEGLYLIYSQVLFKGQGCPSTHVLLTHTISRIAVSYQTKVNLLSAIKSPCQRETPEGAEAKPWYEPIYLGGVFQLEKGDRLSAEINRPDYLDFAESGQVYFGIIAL

Sequence of Cytochrome P450 2D6 (P10635 whole entry): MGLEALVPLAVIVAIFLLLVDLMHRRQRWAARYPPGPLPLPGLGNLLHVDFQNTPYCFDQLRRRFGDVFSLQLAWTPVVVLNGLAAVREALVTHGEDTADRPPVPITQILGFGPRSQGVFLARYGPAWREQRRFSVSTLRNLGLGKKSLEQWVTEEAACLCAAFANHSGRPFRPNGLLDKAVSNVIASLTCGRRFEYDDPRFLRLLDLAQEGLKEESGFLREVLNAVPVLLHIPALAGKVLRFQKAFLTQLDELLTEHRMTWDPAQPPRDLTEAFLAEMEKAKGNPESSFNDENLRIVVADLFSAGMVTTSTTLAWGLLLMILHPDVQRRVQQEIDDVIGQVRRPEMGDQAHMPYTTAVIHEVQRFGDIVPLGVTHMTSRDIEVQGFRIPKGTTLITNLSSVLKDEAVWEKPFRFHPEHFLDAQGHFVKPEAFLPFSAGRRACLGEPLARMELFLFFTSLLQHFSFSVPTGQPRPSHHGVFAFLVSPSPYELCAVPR

With CCN1CCN(c2cc(=O)n(-c3cc(Cl)ccc3C)c(=O)[nH]2)CC1 the AC50 (Cytochrome P450 2D6) was “inconclusive”.

For CC(C)(C)C(=O)C[n+]1ccc(C(N)=O)cc1, the AC50 (CAAX prenyl protease 2 [1]) was 12.5 µM (active), the AC50 (CAAX prenyl protease 2 [2]) was 15.1 µM (active) and the AC50 (Trypsin) was 13.4 µM (active).

With Cc1ccc2oc(Nc3nc(O)cc(-c4ccccc4)n3)nc2c1 the IC50 [3] was over 32 µM, the IC50 [4] was 3.99 µM (active) and the EC50 (Beta-galactosidase [5]) was > 31.5 µM (inactive). For the same molecule, the EC50 [6] was > 30 µM (not active), the IC50 [7] was > 32 µM (inactive) and the EC50 (Beta-galactosidase [8]) was > 40 µM (inactive). The IC50 [9] was 11.9 µM (active), the EC50 [10] was > 32 µM (inactive) and the EC50 (Mu-type opioid receptor) was > 32 µM (inactive). The EC50 [11] was 1.62 µM (active).

With CCn1c(SCC(=O)c2cc(C)n(CC3CCCO3)c2C)nc2ccccc21 (centres undefined) the EC50 [12] was 5.31 µM (active) and the EC50 [13] was 9.44 µM (active).

For COc1ccccc1Oc1c(C)oc2c(CN3CCN(CCO)CC3)c(O)ccc2c1=O, the AC50 (CAAX prenyl protease 2 [1]) was 2.48 µM (active) and the AC50 (Trypsin) was 5.25 µM (active).

For Cc1ccc(N2CCN(S(=O)(=O)c3ccc4c(c3)CC(C)N4C(=O)C3CC3)CC2)cc1 (centres undefined), the IC50 (HEK293) was > 20 µM (inactive), the IC50 [14] was > 20 µM (inactive) and the IC50 (Tumor necrosis factor) was > 20 µM (inactive).

In the case of CCOc1ccc(C(=O)Nc2ccc(CN3CCc4ccccc4C3)cc2)cc1, the IC50 (HEK293) is reported as > 20 µM (inactive), the IC50 [14] is reported as > 20 µM (inactive) and the IC50 (Tumor necrosis factor) is reported as > 20 µM (inactive).
